Measured values from patent US4257941A, “Polycyclic nitrogen-containing compounds” (BASF Aktiengesellschaft, priority 1976, dated 1981).
Structures can show the parent of a compound that is named as a salt.

Tested on: lawns
Assay: Long-term action on lawns (Example 14)
Assay type: in vivo
Conditions: for First cutting, green weight relative / First cutting, growth height relative / Second cutting, green weight relative / Second cutting, growth height relative / Third cutting, green weight relative: control 100

Row | Structure (SMILES) | First cutting, green weight (0.5 kg/ha) [g] | First cutting, growth height (0.5 kg/ha) [cm] | Second cutting, green weight (0.5 kg/ha) [g] | Second cutting, growth height (0.5 kg/ha) [cm] | Third cutting, green weight (0.5 kg/ha) [g] | First cutting, green weight relative (0.5 kg/ha) | First cutting, growth height relative (0.5 kg/ha) | Second cutting, green weight relative (0.5 kg/ha) | Second cutting, growth height relative (0.5 kg/ha) | Third cutting, green weight relative (0.5 kg/ha) | First cutting, green weight (1.0 kg/ha) [g] | First cutting, growth height (1.0 kg/ha) [cm] | Second cutting, green weight (1.0 kg/ha) [g] | Second cutting, growth height (1.0 kg/ha) [cm] | Third cutting, green weight (1.0 kg/ha) [g] | First cutting, green weight relative (1.0 kg/ha) | First cutting, growth height relative (1.0 kg/ha) | Second cutting, green weight relative (1.0 kg/ha) | Second cutting, growth height relative (1.0 kg/ha) | Third cutting, green weight relative (1.0 kg/ha) | other results
1 | Clc1ccc(N2N=NC3C4CC(C5NNC45)C32)cc1 (centres unmarked) [drawing 381] | 28.8 | 16.5 | 27.2 | 12.5 | 17.2 | 81.6 | 91.7 | 101.9 | 85.0 | 113.2 | 21.3 | 13.5 | 20.5 | 9.0 | 15.1 | 60.3 | 75.0 | 76.8 | 61.2 | 99.3 | First cutting, green weight (2.0 kg/ha): 17.2 g; First cutting, growth height (2.0 kg/ha): 11.5 cm; Second cutting, green weight (2.0 kg/ha): 16.2 g; Second cutting, growth height (2.0 kg/ha): 7.5 cm; Third cutting, green weight (2.0 kg/ha): 12.5 g; First cutting, green weight relative (2.0 kg/ha): 48.7; First cutting, growth height relative (2.0 kg/ha): 63.9; Second cutting, green weight relative (2.0 kg/ha): 60.7; Second cutting, growth height relative (2.0 kg/ha): 51.0; Third cutting, green weight relative (2.0 kg/ha): 82.2; First cutting, green weight (4.0 kg/ha): 13.9 g; First cutting, growth height (4.0 kg/ha): 9.0 cm; Second cutting, green weight (4.0 kg/ha): 10.2 g; Second cutting, growth height (4.0 kg/ha): 5.0 cm; Third cutting, green weight (4.0 kg/ha): 9.8 g; First cutting, green weight relative (4.0 kg/ha): 39.4; First cutting, growth height relative (4.0 kg/ha): 50.0; Second cutting, green weight relative (4.0 kg/ha): 38.2; Second cutting, growth height relative (4.0 kg/ha): 34.0; Third cutting, green weight relative (4.0 kg/ha): 64.5
2 | Brc1ccc(N2N=NC3C4CC(C5N=NC45)C32)cc1 (centres unmarked) [drawing 380] | 25.5 | 14.5 | 27.8 | 14.5 | 16.5 | 72.2 | 80.6 | 104.1 | 98.6 | 108.6 | 24.4 | 12.5 | 25.1 | 11.5 | 16.5 | 69.1 | 69.5 | 94.0 | 78.2 | 108.6 | First cutting, green weight (2.0 kg/ha): 22.0 g; First cutting, growth height (2.0 kg/ha): 11.0 cm; Second cutting, green weight (2.0 kg/ha): 18.7 g; Second cutting, growth height (2.0 kg/ha): 8.0 cm; Third cutting, green weight (2.0 kg/ha): 14.0 g; First cutting, green weight relative (2.0 kg/ha): 62.3; First cutting, growth height relative (2.0 kg/ha): 61.1; Second cutting, green weight relative (2.0 kg/ha): 70.0; Second cutting, growth height relative (2.0 kg/ha): 54.4; Third cutting, green weight relative (2.0 kg/ha): 92.1; First cutting, green weight (4.0 kg/ha): 16.5 g; First cutting, growth height (4.0 kg/ha): 10.5 cm; Second cutting, green weight (4.0 kg/ha): 13.2 g; Second cutting, growth height (4.0 kg/ha): 7.0 cm; Third cutting, green weight (4.0 kg/ha): 10.3 g; First cutting, green weight relative (4.0 kg/ha): 46.7; First cutting, growth height relative (4.0 kg/ha): 58.3; Second cutting, green weight relative (4.0 kg/ha): 49.4; Second cutting, growth height relative (4.0 kg/ha): 47.6; Third cutting, green weight relative (4.0 kg/ha): 67.8
3 | Cc1ccccc1N1N=NC2C3CC(C4N=NC34)C21 (centres unmarked) | 26.8 | 14.0 | 23.5 | 13.0 | 16.5 | 75.9 | 77.8 | 88.0 | 88.4 | 108.6 | 25.5 | 14.0 | 22.0 | 12.5 | 16.3 | 72.2 | 77.8 | 82.4 | 85.0 | 107.2 | First cutting, green weight (2.0 kg/ha): 20.0 g; First cutting, growth height (2.0 kg/ha): 12.5 cm; Second cutting, green weight (2.0 kg/ha): 21.4 g; Second cutting, growth height (2.0 kg/ha): 22.0 cm; Third cutting, green weight (2.0 kg/ha): 15.7 g; First cutting, green weight relative (2.0 kg/ha): 56.7; First cutting, growth height relative (2.0 kg/ha): 69.5; Second cutting, green weight relative (2.0 kg/ha): 80.1; Second cutting, growth height relative (2.0 kg/ha): 74.8; Third cutting, green weight relative (2.0 kg/ha): 103.3; First cutting, green weight (4.0 kg/ha): 13.2 g; First cutting, growth height (4.0 kg/ha): 9.5 cm; Second cutting, green weight (4.0 kg/ha): 15.3 g; Second cutting, growth height (4.0 kg/ha): 7.5 cm; Third cutting, green weight (4.0 kg/ha): 13.9 g; First cutting, green weight relative (4.0 kg/ha): 37.4; First cutting, growth height relative (4.0 kg/ha): 52.8; Second cutting, green weight relative (4.0 kg/ha): 57.3; Second cutting, growth height relative (4.0 kg/ha): 51.0; Third cutting, green weight relative (4.0 kg/ha): 91.4
4 | c1cc2sncc2cc1N1N=NC2C3CC(C4N=NC34)C21 (centres unmarked) [drawing 382] | 31.8 | 18.5 | 28.8 | 14.0 | 15.5 | 90.1 | 102.8 | 107.9 | 95.2 | 102.0 | 27.1 | 16.5 | 25.8 | 13.0 | 15.3 | 76.8 | 91.7 | 96.6 | 88.4 | 100.7 | First cutting, green weight (2.0 kg/ha): 20.3 g; First cutting, growth height (2.0 kg/ha): 14.5 cm; Second cutting, green weight (2.0 kg/ha): 19.1 g; Second cutting, growth height (2.0 kg/ha): 9.0 cm; Third cutting, green weight (2.0 kg/ha): 12.8 g; First cutting, green weight relative (2.0 kg/ha): 57.5; First cutting, growth height relative (2.0 kg/ha): 80.6; Second cutting, green weight relative (2.0 kg/ha): 71.5; Second cutting, growth height relative (2.0 kg/ha): 61.2; Third cutting, green weight relative (2.0 kg/ha): 84.2; First cutting, green weight (4.0 kg/ha): 19.5 g; First cutting, growth height (4.0 kg/ha): 12.5 cm; Second cutting, green weight (4.0 kg/ha): 16.8 g; Second cutting, growth height (4.0 kg/ha): 7.0 cm; Third cutting, green weight (4.0 kg/ha): 12.8 g; First cutting, green weight relative (4.0 kg/ha): 55.2; First cutting, growth height relative (4.0 kg/ha): 69.5; Second cutting, green weight relative (4.0 kg/ha): 62.9; Second cutting, growth height relative (4.0 kg/ha): 47.6; Third cutting, green weight relative (4.0 kg/ha): 84.2
5 | CC(=O)Nc1ccc(C)c(NS(=O)(=O)C(F)(F)F)c1 [S, diethanolamine salt of 3-trifluoromethylsulfonamido-p-acetotoluidide, reference compound] | 26.7 | 14.5 | 27.3 | 14.0 | 15.6 | 75.6 | 80.6 | 102.2 | 95.2 | 102.6 | 23.0 | 13.0 | 27.6 | 12.5 | 15.0 | 65.2 | 72.2 | 103.4 | 85.0 | 98.6 | First cutting, green weight (2.0 kg/ha): 12.6 g; First cutting, growth height (2.0 kg/ha): 10.5 cm; Second cutting, green weight (2.0 kg/ha): 20.1 g; Second cutting, growth height (2.0 kg/ha): 9.5 cm; Third cutting, green weight (2.0 kg/ha): 13.7 g; First cutting, green weight relative (2.0 kg/ha): 35.7; First cutting, growth height relative (2.0 kg/ha): 58.3; Second cutting, green weight relative (2.0 kg/ha): 75.3; Second cutting, growth height relative (2.0 kg/ha): 64.6; Third cutting, green weight relative (2.0 kg/ha): 90.1; First cutting, green weight (4.0 kg/ha): 9.4 g; First cutting, growth height (4.0 kg/ha): 9.0 cm; Second cutting, green weight (4.0 kg/ha): 9.6 g; Second cutting, growth height (4.0 kg/ha): 4.5 cm; Third cutting, green weight (4.0 kg/ha): 10.4 g; First cutting, green weight relative (4.0 kg/ha): 26.6; First cutting, growth height relative (4.0 kg/ha): 50.0; Second cutting, green weight relative (4.0 kg/ha): 36.0; Second cutting, growth height relative (4.0 kg/ha): 30.6; Third cutting, green weight relative (4.0 kg/ha): 68.4
